Source: publication PMC2939063, “In Vitro and In Vivo Studies of the Trypanocidal Properties of WRR-483 against Trypanosoma cruzi” (PLoS Neglected Tropical Diseases, 2010)
“And” between values parts separate entries of the source, which are not always exact repeats. Equal values may be shown once.

Assays:
[1] = tested on: T. cruzi infection in BESM cells; experiment: Dose-response against T. cruzi infection in BESM cells; format: cell-based, Trypanosoma cruzi CA-I/72; conditions: Trypanosoma cruzi, 72 h
Method: Monolayers were then infected with 1000 trypomastigotes/well of CA-I/72 T. cruzi for 2 h at 37°C. […] Cultures were then incubated for 72 h at 37°C in a humidified atmosphere with 5% CO2. Cultures were next fixed in 4% fresh paraformaldehyde in PBS, stained with DAPI, and counted under a fluorescence microscope (400×). Mean numbers of parasites per cell (±SE) were calculated as previously reported (n = 3-4 per concentration). Controls consisted of untreated wells and cultures similarly treated with 10 μM […] and 0.1 μM posaconazole.

Cruzain [2] = target: T1, Cruzain (Trypanosoma cruzi, UniProt P25779); experiment: biochemical; format: biochemical
T1 construct: made in house
Method: For pH dependence studies, cruzain was tested at 4 nM in 5 µM Z-Phe-Arg-AMC in 0.15 M citrate phosphate buffer at pH 5.5 and pH 8.0 with 5 mM DTT, and 0.01% Triton-X 100. Enzyme was added to wells of a 96-well microtiter plate containing substrate and inhibitor diluted in DMSO (0.5% final concentration), or DMSO control. Final inhibitor concentration ranged from 0.01 µM to 10 µM. Experiments were done in triplicate. Assays were run at 25°C in an automated microtiter plate spectrofluorometer, with robotic delivery of enzyme and readings every 1.52 seconds throughout the assay, before and after enzyme addition.
(§1) Inhibitor dilutions which produce simple exponential progress curves over a wide range of k obs, were used to determine kinetic parameters. The value of k obs, the rate constant for loss of enzyme activity, was determined from an equation for pseudo first order dynamics using Prism 4.0 (GraphPad). When k obs varied linearly with inhibitor concentration, k ass was determined by linear regression analysis. If the variation was hyperbolic, indicating saturation inhibition kinetics, k inact and K i were determined from an equation describing a two-step irreversible inhibitor mechanism [k obs = k inact [I]o/([I]o+Ki* (1+[S]o/K M))] and non-linear regression analysis Prism 4.0.[32] All values were corrected for substrate concentration.

Rhodesain = target: T2, Rhodesain (Trypanosoma brucei rhodesiense, UniProt Q95PM0); experiment: Rhodesain enzyme assay (acetate buffer pH 5.5, Z-Phe-Arg-AMC); format: biochemical, T. brucei
T2 construct: made in house
Method: (§2) Cruzain[27],[28], rhodesain [29], and tbcatB [30] were recombinantly expressed as described previously. TbcatB assays were performed as described previously.[31] Cruzain (2 nM) or rhodesain (3 nM) was incubated with 0.5 to 10 µM inhibitor concentration in 100 mM sodium acetate at pH 5.5, containing 5 mM DTT (buffer A) for 5 min at room temperature. Then buffer A containing Z-Phe-Arg-AMC (Bachem, K M = 1 µM) was added to enzyme inhibitor to give 20 µM substrate concentration in 200 µL, and the increase in fluorescence (excitation at 355 nm and emission at 460 nm) was followed with an automated microtiter plate spectrofluorometer (Molecular Devices, Flex station). Inhibitor stock solutions were prepared at 20 mM in DMSO, and serial dilutions were made in DMSO (0.7% DMSO in assay). Controls were performed using enzyme alone and enzyme with DMSO. IC50 values were determined graphically using inhibitor concentrations in the linear portion of a plot of inhibition versus log[I] (seven concentrations tested with at least two in the linear range).
as §1

Cruzain [3] = target: T1, Cruzain; experiment: Cruzain enzyme assay (acetate buffer pH 5.5, Z-Phe-Arg-AMC); format: biochemical; conditions: 100 mM sodium acetate pH 5.5, 5 mM DTT
Method: as §2, with “(seven concentrations tested with at least two in the linear range).” left out
Inhibitor dilutions which produce simple exponential progress curves over a wide range of k obs, were used to determine kinetic parameters. The value of k obs, the rate constant for loss of enzyme activity, was determined from an equation for pseudo first order dynamics using Prism 4.0 (GraphPad). When k obs varied linearly with inhibitor concentration, k ass was determined by linear regression analysis. […]

Papain = target: T3, Papain (Carica papaya, UniProt P00784); experiment: Protease inhibition profiling (Reaction Biology Corp): Papain; format: biochemical
T3 construct: Reaction Biology Corp (screening service)
T3 sequence (P00784 134-345): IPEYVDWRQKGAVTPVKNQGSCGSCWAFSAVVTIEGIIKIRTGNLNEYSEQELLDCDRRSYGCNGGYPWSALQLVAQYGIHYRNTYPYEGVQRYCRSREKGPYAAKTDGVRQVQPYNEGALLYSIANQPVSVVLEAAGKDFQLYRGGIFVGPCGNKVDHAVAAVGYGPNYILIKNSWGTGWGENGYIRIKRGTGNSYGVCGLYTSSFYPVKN

cathepsin H = target: T4, cathepsin H (Homo sapiens, UniProt P09668); experiment: Protease inhibition profiling (Reaction Biology Corp): cathepsin H; format: biochemical; conditions: panel of 70 proteases
T4 construct: Reaction Biology Corp (screening service)
T4 sequence (P09668 98-335): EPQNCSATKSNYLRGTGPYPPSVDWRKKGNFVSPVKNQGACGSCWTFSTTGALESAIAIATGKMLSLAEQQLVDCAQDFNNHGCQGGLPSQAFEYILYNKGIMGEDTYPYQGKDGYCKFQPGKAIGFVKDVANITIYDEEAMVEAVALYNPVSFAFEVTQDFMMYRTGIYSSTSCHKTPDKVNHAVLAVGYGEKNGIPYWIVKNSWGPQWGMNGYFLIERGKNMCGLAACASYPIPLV

Cathepsin V = target: T5, Cathepsin V (Homo sapiens, UniProt O60911); experiment: Protease inhibition profiling (Reaction Biology Corp): Cathepsin V; format: biochemical; conditions: read-out: IC50, Cathepsin V
T5 construct: Reaction Biology Corp (screening service)

Cathepsin K = target: T6, Cathepsin K (Homo sapiens, UniProt P43235); experiment: Protease inhibition profiling (Reaction Biology Corp): Cathepsin K; format: biochemical
T6 construct: Reaction Biology Corp (screening service)
T6 sequence (P43235 115-329): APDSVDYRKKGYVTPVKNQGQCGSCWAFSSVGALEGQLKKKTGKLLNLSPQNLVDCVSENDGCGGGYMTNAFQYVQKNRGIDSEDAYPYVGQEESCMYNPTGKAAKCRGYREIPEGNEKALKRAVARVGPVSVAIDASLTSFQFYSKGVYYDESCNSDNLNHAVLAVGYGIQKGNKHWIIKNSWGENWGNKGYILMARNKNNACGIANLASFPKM

tbcatB = target: T7, tbcatB (Trypanosoma brucei, UniProt Q6R7Z5); experiment: tbcatB enzyme assay; format: biochemical
T7 construct: made in house
T7 sequence (Q6R7Z5 23-340): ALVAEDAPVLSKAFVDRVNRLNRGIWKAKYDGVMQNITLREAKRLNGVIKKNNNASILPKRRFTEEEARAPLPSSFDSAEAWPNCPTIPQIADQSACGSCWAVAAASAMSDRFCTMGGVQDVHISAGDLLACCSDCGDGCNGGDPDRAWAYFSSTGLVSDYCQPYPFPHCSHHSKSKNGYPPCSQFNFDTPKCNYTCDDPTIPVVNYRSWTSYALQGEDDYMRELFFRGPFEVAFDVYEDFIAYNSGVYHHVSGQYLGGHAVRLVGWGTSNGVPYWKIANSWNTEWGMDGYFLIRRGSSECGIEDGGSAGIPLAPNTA
Method: as §2, §1

Cathepsin C = target: T8, Cathepsin C (Homo sapiens, UniProt P53634); experiment: Protease inhibition profiling (Reaction Biology Corp): Cathepsin C; format: biochemical
T8 construct: Reaction Biology Corp (screening service)

Entamoeba histolytica = conditions: human colonic xenograft model; cited from earlier work
EhCP1 = conditions: cited from earlier work
[4] = pH 5.5, citrate phosphate buffer
[5] = pH 8.0, citrate phosphate buffer

T1 sequence (P25779 123-337 limits assumed): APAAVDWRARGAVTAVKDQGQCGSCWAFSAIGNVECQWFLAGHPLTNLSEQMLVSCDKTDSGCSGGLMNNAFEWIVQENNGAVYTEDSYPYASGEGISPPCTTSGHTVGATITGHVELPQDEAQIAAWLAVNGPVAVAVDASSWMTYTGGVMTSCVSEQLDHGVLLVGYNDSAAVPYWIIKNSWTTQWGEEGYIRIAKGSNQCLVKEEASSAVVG
T2 sequence (Q95PM0 entry or part of it): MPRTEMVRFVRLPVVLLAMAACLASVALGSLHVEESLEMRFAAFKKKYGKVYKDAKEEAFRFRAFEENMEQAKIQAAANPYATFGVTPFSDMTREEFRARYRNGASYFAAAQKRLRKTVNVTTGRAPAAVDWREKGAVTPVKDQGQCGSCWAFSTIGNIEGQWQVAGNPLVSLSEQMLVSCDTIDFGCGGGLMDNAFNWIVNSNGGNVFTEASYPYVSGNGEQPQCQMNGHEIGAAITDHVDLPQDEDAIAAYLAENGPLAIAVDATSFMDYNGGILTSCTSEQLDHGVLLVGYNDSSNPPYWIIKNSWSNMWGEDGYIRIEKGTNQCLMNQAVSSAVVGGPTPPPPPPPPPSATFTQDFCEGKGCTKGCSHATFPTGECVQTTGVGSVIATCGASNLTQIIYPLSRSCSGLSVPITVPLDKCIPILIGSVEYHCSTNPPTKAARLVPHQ
T5 sequence (O60911 114-334, species assumed): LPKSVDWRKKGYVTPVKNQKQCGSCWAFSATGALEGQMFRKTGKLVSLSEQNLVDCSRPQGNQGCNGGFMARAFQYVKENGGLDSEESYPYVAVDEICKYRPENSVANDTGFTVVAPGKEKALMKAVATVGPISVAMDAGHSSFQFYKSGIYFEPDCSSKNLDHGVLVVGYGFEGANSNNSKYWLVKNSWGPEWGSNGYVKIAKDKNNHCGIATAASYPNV
T8 sequence (P53634 25-463, species assumed): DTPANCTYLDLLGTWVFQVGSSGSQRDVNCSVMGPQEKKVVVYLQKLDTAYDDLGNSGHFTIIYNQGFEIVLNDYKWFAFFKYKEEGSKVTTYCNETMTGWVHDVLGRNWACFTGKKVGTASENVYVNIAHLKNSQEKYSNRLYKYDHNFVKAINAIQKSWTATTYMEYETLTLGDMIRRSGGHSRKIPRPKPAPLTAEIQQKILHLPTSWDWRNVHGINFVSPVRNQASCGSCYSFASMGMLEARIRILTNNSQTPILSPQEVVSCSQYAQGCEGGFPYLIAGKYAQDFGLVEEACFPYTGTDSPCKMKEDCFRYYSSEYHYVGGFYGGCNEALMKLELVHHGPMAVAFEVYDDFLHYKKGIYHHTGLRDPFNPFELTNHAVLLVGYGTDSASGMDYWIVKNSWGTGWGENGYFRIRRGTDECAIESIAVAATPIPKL

With `CN1CCN(C(=O)N[C@@H](CCCNC(=N)N)C(=O)N[C@H](/C=C/S(=O)(=O)c2ccccc2)CCc2ccccc2)CC1` [WRR-483] the EC50 [1] was 0.2 µM, the “improvement of cruzain IC50 at pH 8.0 than at pH 5.5” value (Cruzain [2]; citrate phosphate buffer) was roughly 10 fold and the “increase in the second-order rate of inactivation of cruzain, pH 8.0 vs pH 5.5” value (Cruzain [2]; citrate phosphate buffer) was 4 fold. For the same compound, the IC50 (Cruzain [2]; [4]) was 0.07 ± 0.03 µM, the “k inact/K i, cruzain” value (Cruzain [2]; [4]) was 14,000±240 s^-1 M^-1 and the IC50 (Cruzain [2]; [5]) was 0.008 ± 0.002 µM. For the same compound, the “k inact/K i, cruzain” value (Cruzain [2]; [5]) was 62,000±350 s^-1 M^-1, the “k obs/[I] at 1 µM, Rhodesain” value (Rhodesain; 100 mM sodium acetate pH 5.5, 5 mM DTT) was “No inhibition” and the inhibition of rhodesain (Rhodesain; even at 10 µM concentration) was “no inhibition”. The “k obs/[I] at 1 µM, Cruzain” value (Cruzain [3]) was 4,800 s^-1 M^-1 and 4,800±480 s^-1 M^-1, the IC50 (Papain) was 0.373 ± 0.044 µM and the “inhibition of cathepsin H” value (cathepsin H) was “no inhibition”. The IC50 (Cathepsin V) was 0.335 ± 0.004 µM, the “IC50, Cathepsin K” value (Cathepsin K) was “No inhibition” and the “inhibition of tbcatB (in words)” value (tbcatB) was “weak inhibitors”. For the same compound, the inhibition at 1 µM (tbcatB; read-out: tbcatB % inhibition at 1 µM, 1 µM inhibitor) was 26%, the IC50 (Cathepsin C) was 0.007 ± 0.0009 µM and the “reduction of amebic invasion” value (Entamoeba histolytica) was 95%. The “inhibition of EhCP1” value (EhCP1) was “potent inhibitor”.
